# Source: patent US9867798B2, “Ladostigil therapy for immunomodulation” (priority 2012, dated 2018)
# How the values were obtained:
# [1] = test system: mice with DSS-induced colitis; experiment: Acute colitis induced by DSS in mice: body weight, stool, bleeding, DAI, colon length; format: in vivo, BALB/c OlaHsd mice
# Experimental: (§1) BALB/c OlaHsd male mice aged 8-9 weeks and weighing 25-30 g were purchased from Harlan (Jerusalem, Israel) and housed in standard cages of up to 5 per cage in the pathogen free Animal Facility of the Institute for Drug Research. All experiments were performed in accordance with the Principles of Laboratory Animal Care (NIH publication #85-23, revised 1985) protocols MD-09-12197-4. Acute colitis was induced in mice by administration of 5% DSS solution (M.Wt.=[…], MP Biomedicals, LLC, Solon, Ohio, USA) in water for 8 days. The DSS solution was freshly prepared every day. Mice were provided with food and water or DSS solution ad libitum during the experiment. They were divided into groups of 10 as follows: Vehicle control group: mice drank water and were given water (1 ml/100 gm) once daily by gavage for 8 days; Drug control group: mice drank water and were given ladostigil (10 mg/kg) by gavage once daily for 8 days. DSS untreated group: mice drank 5% DSS for 7 days and water on the 8th day and were given water (1 ml/100 g) once daily by gavage for 8 days. Drug treated group: mice drank 5% DSS followed by water as above and were given ladostigil (5 or 10 mg/kg) by gavage once daily for 8 days. The volume of 5% DSS solution consumed was measured for each group of mice and the average volume/mouse was calculated. On the eighth day, the mice were anesthetized by CO2 and sacrificed by cervical dislocation 2 h after the last dose of ladostigil. Samples of colon and spleen were taken for measurement of cytokines MPO, cytokines and ChE activity.
# Body weight, stool consistency and the presence of blood in the stools was recorded daily for each mouse. […] The score ranged between 0-4 for all three parameters and was composed as follows: Weight loss: none=0, 1-5%=1, 5-10%=2, 10-20%=3, >20%=4. Percent of weight loss on days 7 and 8 relative to the first day was calculated for all the groups. […] Bleeding: none=0, hemoccult=2, gross bleeding=4. The maximum DAI score was 4 based on a combination of scores of weight loss (relative to that on the first day of the experiment), stool consistency and bleeding, divided by 3. After sacrifice the length of the colon segment from the cecum to the rectum was measured.
# [2] = test system: cholinesterase (AChE and BuChE); experiment: Cholinesterase activity in spleen and colon of mice drinking DSS (Ellman); format: in vivo; conditions: rivastigmine 1 mg/kg/day
# Experimental: as §1
# (§2) In experiments on the effect of chronic treatment with ladostigil on ChE activity in mice drinking DSS, the spleen was rapidly removed as described above, together with a colon segment of about 0.5 cm in length taken from the proximal area. Spleen and colon segments were washed in cold phosphate buffered saline (PBS) before they were frozen at −80° C. For assay, the tissue was unfrozen and weighed and PBS was added to each tissue at a ratio of 1 mg tissue to 1 ml. Tissues were homogenized at a speed of 24,000 rpm in cold phosphate buffer pH 7 containing 0.1% Triton and centrifuged at 14000 rpm. Aliquots of plasma and the supernatant from the spleen and colon were incubated with acetylthiocholine and dinitro benzoic acid in phosphate buffer pH 7 and the rate of development of the yellow color was measured as described by Ellman et al, (1961). Percent inhibition of ChE activity was calculated by comparison with that of control mice given water by gavage. Protein concentration was determined by means of by Pierce BCA Protein Assay Kit (Thermo Scientific, USA) according to the manufacturer's instructions. It is noted, that ChE activity in the colon and spleen of mice is attributed mainly to that of AChE while that in mouse plasma is mainly attributable to BuChE.
# [3] = test system: LPS-induced TNF-α, IL-1β and IL-6 in spleen; experiment: Cytokines in spleen of mice injected with LPS, comparison to rivastigmine (Example 5); format: in vivo, Balb/c mice; conditions: for IL-1β in spleen / IL-6 in spleen / TNF-α in spleen: four hours
# Experimental: Male Balb/c mice (aged 8-9 weeks, weighing 25-30 gm) were given ladostigil (10 or 20 mg/kg) or rivastigmine (0.5 or 1 mg/kg) by gavage, or water (1 ml/100 g), followed 15 min later by an intra-peritoneal injection of LPS (10 mg/kg). Control mice were given LPS and water by gavage (1 ml/100 g). For measurement of cytokine levels in the spleen and blood the mice were sacrificed 4 h after drug administration, blood collected in heparinized tubes and centrifuged to obtain plasma and the spleen was rapidly removed and weighed. Plasma and spleen were frozen in liquid nitrogen and stored at −80° C. until use. For measurement of cytokine levels, the tissue was diluted in PBS containing 0.8% NaCl, 0.144% NaHPO4, 0.024% KH2PO4 and protease inhibitor cocktail (Sigma Israel, P8340) and homogenized in an Ultra-TURRAX® homogenizer at a speed of 24,000 rpm, centrifuged at 14000 g for 15 min at 4° C. Cytokines were detected in the supernatant by using ELISA kits for cytokines IL-1β, IL-6, and TNF-α (Biolegend) following the manufacturer's protocol. Each experiment was performed twice with 8 replicate measures in each experiment. Protein concentration in each sample was determined with Bradford reagent (Bio-RAD, 500-0006).
# [4] = test system: ChE; experiment: Cholinesterase inhibition in plasma and spleen of LPS injected mice (Example 5); format: in vivo, Balb-C mice; conditions: for Inhibition of ChE, plasma / Inhibition of ChE, spleen: 60 min after oral administration, LPS injected mice
# Experimental: as §2
# For the LPS experiment involving a single administration, ladostigil (10 or 20 mg/kg) in a volume of 1 ml/100 g or water (1 ml/100 g) were given by gavage to groups of 6-8 Balb-C male mice weighing 24-30 g and LPS as described above. […] Blood was taken into heparinized tubes and centrifuged at 14000 rpm at room temperature for 4 min to provide plasma and the spleen was rapidly removed, weighed, frozen in liquid nitrogen and stored at −80° C. until assayed. It is noted, that ChE inhibition in mouse plasma is mainly attributed to BuChE activity, and in mouse spleen—mainly to AChE activity.
# Percent inhibition of ChE activity was calculated by comparison with that of control mice given water by gavage as described in Example 1 above.
# [5] = rivastigmine 0.5 mg/kg + LPS 10 mg/kg
# [6] = rivastigmine 1 mg/kg + LPS 10 mg/kg
structure (smiles),measurement,setting,value
"CCN(C)C(=O)Oc1cccc([C@H](C)N(C)C)c1 [Rivastigmine, reference compound]",Prevention of weight loss induced by DSS,"[1]; 5% DSS, rivastigmine",did not prevent the weight loss
same,Body weight decrease,[1]; mice given 1 mg/kg/day,4.7%
same,Inhibition of colonic ChE,[2],> 60%
same,Effect on levels of the three cytokines in spleen,[3]; rivastigmine 0.5 mg/kg + LPS,had no effect on levels of any of the three cytokines
same,IL-1β in spleen,[3]; [5],551 ± 31 pg/mg
same,IL-6 in spleen,[3]; [5],569 ± 89 pg/mg
same,TNF-α in spleen,[3]; [5],16.8 ± 2.5 pg/mg
same,Effect on cytokine levels in spleen,[3]; rivastigmine 1 mg/kg + LPS,"significantly reduced IL-1β and IL-6, but not of TNF-α"
same,IL-1β in spleen,[3]; [6],440 ± 40 pg/mg
same,IL-6 in spleen,[3]; [6],462 ± 66 pg/mg
same,TNF-α in spleen,[3]; [6],16.5 ± 2.2 pg/mg
same,"Inhibition of ChE, plasma",[4]; rivastigmine 0.5 mg/kg,28 ± 4.5 %
same,"Inhibition of ChE, spleen",[4]; rivastigmine 0.5 mg/kg,32.6 ± 5.6 %
same,"Inhibition of ChE in plasma and spleen, compared with rivastigmine 0.5 mg/kg",[4]; rivastigmine 1 mg/kg,about twice as much
same,"Inhibition of ChE, plasma",[4]; rivastigmine 1 mg/kg,56.8 ± 6.1 %
same,"Inhibition of ChE, spleen",[4]; rivastigmine 1 mg/kg,65.8 ± 3.2 %
